Measured values published in PubChem BioAssay (NCI).
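Cultured in 96-well plates, cells were exposed to test compound for 48 hours across five concentrations. GI50 = concentration required for 50% inhibition of growth. The concentration for full growth arrest is given as TGI.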

Experiments:
Test in all cases: DTP human tumour cell line panel, 48 h
OVCAR-5 ovarian = tested on: OVCAR-5 ovarian
KM12 colon = tested on: KM12 colon
MOLT-4 leukemia = tested on: MOLT-4 leukemia
SF-539 CNS = tested on: SF-539 CNS
SK-MEL-2 melanoma = tested on: SK-MEL-2 melanoma
A549 NSCLC = tested on: A549 NSCLC
SK-MEL-28 melanoma = tested on: SK-MEL-28 melanoma
SK-MEL-5 melanoma = tested on: SK-MEL-5 melanoma
786-0 renal = tested on: 786-0 renal
SNB-75 CNS = tested on: SNB-75 CNS

Row | Structure (SMILES) | GI50 (OVCAR-5 ovarian) [µM] | TGI (OVCAR-5 ovarian) [µM] | GI50 (KM12 colon) [µM] | TGI (KM12 colon) [µM] | GI50 (MOLT-4 leukemia) [µM] | TGI (MOLT-4 leukemia) [µM] | GI50 (SF-539 CNS) [µM] | TGI (SF-539 CNS) [µM] | GI50 (SK-MEL-2 melanoma) [µM] | TGI (SK-MEL-2 melanoma) [µM] | GI50 (A549 NSCLC) [µM] | TGI (A549 NSCLC) [µM] | GI50 (SK-MEL-28 melanoma) [µM] | TGI (SK-MEL-28 melanoma) [µM] | GI50 (SK-MEL-5 melanoma) [µM] | TGI (SK-MEL-5 melanoma) [µM] | GI50 (786-0 renal) [µM] | TGI (786-0 renal) [µM] | GI50 (SNB-75 CNS) [µM] | TGI (SNB-75 CNS) [µM]
1 | Clc1ccc(-c2cnc3c(-c4ccnc(N5CCNCC5)c4)cnn3c2)cc1 | 1.82 | 3.29 | 1.87 | 3.43 | 1.75 | 3.7 | 1.74 | 3.29 | 0.561 | 1.69 | 1.96 | 3.69 | 1.79 | 3.2 | 1.79 | 3.22 | 1.83 | 3.22 | 1.56 | 2.91
2 | OCC1OC(N2C=C(c3nc4ccccc4s3)C3C=CC=CC32)C(O)C(O)C1O (stereo not given) | 16.5 | > 50 | 11 | 24.3 | 36.5 | > 50 | 14.8 | 40.3 | 31.7 | > 50 | 18.7 | > 50 | 19.2 | > 50 | 12.1 | 30.5 | 17.6 | > 50 | 18.1 | > 50
3 | CCCCN(CCCC)P(=O)(Oc1ccccc1)Oc1ccccc1 | 13.3 | 28.3 | 8.1 | 21.4 | 6.18 | 38.4 | 14 | 28.6 | 11.8 | 28 | 5.06 | 19.6 | 15.3 | 29.2 | 11.5 | 23.7 | 12.3 | 25.2 | 11.3 | 27.3
4 | Oc1ccc(N=Nc2ccc(Br)cc2)c(O)c1 | 5.75 | 75.5 | 3.31 | 39.8 | 1.94 | 5.56 | 1.93 | 5.14 | 2.64 | 12 | 3.19 | 17.9 | 7.97 | > 100 | 3.85 | 21.6 | 3.17 | 23.6 | 2.79 | 21.8
5 | O=C1CCCc2ccc([N+](=O)[O-])c(O)c21 |  | > 100 |  | > 100 |  | > 100 |  | > 100 |  | > 100 |  | > 100 |  | > 100 |  | > 100 |  | > 100 |  | > 100
6 | Cc1[nH]c2ccccc2c1CO | 24.4 | 96.9 | 4.84 | 19.4 | 25.1 | 91.6 | 18.8 | 39.9 | 16.7 | 36.6 | 38.3 | > 100 | 16.6 | 34.3 | 18.1 | 36.9 | 24.5 | 64.8 | 7.33 | 39.3
7 | Oc1nc(N2CCOCC2)sc1/C=C1\C=Nc2ccccc21 | > 100 | > 100 | > 100 | > 100 | > 100 | > 100 | > 100 | > 100 | > 100 | > 100 | > 100 | > 100 | > 100 | > 100 | > 100 | > 100 | > 100 | > 100 | 64.8 | > 100
8 | COc1ccc(C(=O)/C=C/c2cc(-c3ccc(OC)c(OC)c3)n[nH]2)cc1OC | 1.76 | 5.24 | 0.625 | 2.08 | 2.2 | > 100 | 0.525 | 2.54 | 2.46 | 5.17 | 2.25 | 10.2 | 1.82 | 4.82 | 1.58 | 2.96 | 1.81 | 5.14 | 1.16 | 2.96
9 | CC(C)[C@@]12C[C@@H](OC(=O)C3CO3)[C@@](C)(O1)[C@@H]1CC[C@@H](C)[C@H]1[C@@H]2OC(=O)/C=C/c1ccccc1 (stereo not given in full) | 19.3 | 47.9 | 18.7 | 38.1 | 24.7 | > 100 | 16.4 | 31.4 | 19.1 | 42.8 | 20.4 | 49.5 | 18.4 | 37.9 | 16.5 | 30.2 | 14 | 29.5 | 10.8 | 30.9
10 | COC(=O)CCc1n(Cc2ccc3ccccc3c2)c2ccccc2[n+]1Cc1ccc2ccccc2c1 | 1.18 | 2.77 | 0.685 | 2.12 | 1.13 | 2.98 | 1.07 | 2.45 | 1.23 | 2.72 | 2.92 | 11.9 | 0.8 | 2.46 | 0.415 | 1.56 | 1.14 | 2.45 | 0.93 | 2.26
11 | O=c1[nH]c(-c2ccc(Cl)c(Cl)c2)cn1-c1ccc(Cl)cc1 | 30.2 | > 100 | 71.3 | > 100 | 20.8 | 38.9 | 20.1 | 54.2 | 24.4 | 64.6 | 21.3 | 48 | 59.6 | > 100 | 42.2 | > 100 | 20.7 | 43.9 | 18.6 | 37.5
12 | COc1ccc(Nc2ncc(I)c(NCCCNC(=O)C3CCC3)n2)cc1 | 8.28 | 68.5 | 3.42 | > 100 | 4.32 | > 100 | 3.47 | 18.4 | 16.8 | 57.1 | 4.6 | 24.6 | 18 | > 100 | 10.1 | 28.7 | 5.58 | 29.2 | 0.464 | 7.75
13 | COc1ccc(C2(Cl)C(Cl)(C(F)(F)F)C2(Cl)C(F)(F)F)cc1 (stereo not given) |  | 27 |  | 27 |  | 15 |  | 28.9 |  | 27.2 |  | 28.1 |  | 29 |  | 22.1 |  | 31 |  | 28
